# Laboratory results as given in ChEMBL document CHEMBL1932988, “Synthesis, antimicrobial, anticancer evaluation and QSAR studies of 6-methyl-4-[1-(2-substituted-phenylamino-acetyl)-1H-indol-3-yl]-2-oxo/thioxo-1,2,3,4-tetrahydropyrimidine-5-carboxylic acid ethyl esters” (Eur J Med Chem, 2012).
# Columns and labels:
# Staphylococcus aureus [1] = assay: Antibacterial activity against Staphylococcus aureus MTCC 2901 after 24 hrs by tube dilution method; format: functional
# Bacillus subtilis [2] = assay: Antibacterial activity against Bacillus subtilis MTCC 2063 after 24 hrs by tube dilution method; format: functional
# Escherichia coli [3] = assay: Antibacterial activity against Escherichia coli MTCC 1652 after 24 hrs by tube dilution method; format: functional
# Candida albicans [4] = assay: Antifungal activity against Candida albicans MTCC 227 after 48 hrs by tube dilution method; format: functional
# Aspergillus niger [5] = assay: Antifungal activity against Aspergillus niger MTCC 8189 after 7 days by tube dilution method; format: functional
# Staphylococcus aureus [6] = assay: Antibacterial activity against Staphylococcus aureus MTCC 2901 after 24 hrs followed by subculturing; format: functional
# Bacillus subtilis [7] = assay: Antibacterial activity against Bacillus subtilis MTCC 2063 after 24 hrs by tube dilution method hrs followed by subculturing; format: functional
# Escherichia coli [8] = assay: Antibacterial activity against Escherichia coli MTCC 1652 after 24 hrs by tube dilution method hrs followed by subculturing; format: functional
# Candida albicans [9] = assay: Antifungal activity against Candida albicans MTCC 227 after 48 hrs by tube dilution method hrs followed by subculturing; format: functional
# Aspergillus niger [10] = assay: Antifungal activity against Aspergillus niger MTCC 8189 after 7 days by tube dilution method hrs followed by subculturing; format: functional
# Staphylococcus aureus [11] = assay: Ratio of MIC to MBC for Staphylococcus aureus MTCC 2901; format: functional
# Bacillus subtilis [12] = assay: Ratio of MIC to MBC for Bacillus subtilis MTCC 2063; format: functional
# Escherichia coli [13] = assay: Ratio of MIC to MBC for Escherichia coli MTCC 1652; format: functional
# Candida albicans [14] = assay: Ratio of MIC to MFC for Candida albicans MTCC 227; format: functional
# Aspergillus niger [15] = assay: Ratio of MIC to MFC for Aspergillus niger MTCC 8189; format: functional
# [16] = Partition coefficient, log P of the compound; format: physicochemical; conditions: octanol/water
# MCF7 = assay: cells; conditions: Homo sapiens, MCF7, 72 h
# Description: Cytotoxicity against human MCF7 cells after 72 hrs by MTT assay
# HCT-116 = assay: cells; conditions: Homo sapiens, HCT-116, 72 h
smiles,measurement,setting,value
CCOC(=O)C1=C(C)NC(=S)NC1c1cn(C(=O)CNc2cccc([N+](=O)[O-])c2)c2ccccc12 (stereo unspecified),-logMIC,Staphylococcus aureus [1],1.6
same,-logMIC,Bacillus subtilis [2],1.6
same,-logMIC,Escherichia coli [3],1.9
same,-logMIC,Candida albicans [4],1.6
same,-logMIC,Aspergillus niger [5],1.6
same,MBC,Staphylococcus aureus [6],>0.1 uM/ml
same,MBC,Bacillus subtilis [7],>0.1 uM/ml
same,MBC,Escherichia coli [8],0.1 uM/ml
same,MFC,Candida albicans [9],>0.1 uM/ml
same,MFC,Aspergillus niger [10],>0.1 uM/ml
same,Ratio,Staphylococcus aureus [11],3
same,Ratio,Bacillus subtilis [12],3
same,Ratio,Escherichia coli [13],3
same,Ratio,Candida albicans [14],3
same,Ratio,Aspergillus niger [15],3
same,logP,[16],2.88
same,IC50,MCF7,> 1000 µg/mL
same,IC50,HCT-116,130 µg/mL
CCOC(=O)C1=C(C)NC(=O)NC1c1cn(C(=O)CNc2ccccc2N)c2ccccc12 (stereo unspecified),-logMIC,Staphylococcus aureus [1],1.55
same,-logMIC,Bacillus subtilis [2],1.55
same,-logMIC,Escherichia coli [3],1.85
same,-logMIC,Candida albicans [4],1.55
same,-logMIC,Aspergillus niger [5],1.55
same,MBC,Staphylococcus aureus [6],>0.11 uM/ml
same,MBC,Bacillus subtilis [7],>0.11 uM/ml
same,MBC,Escherichia coli [8],0.11 uM/ml
same,MFC,Candida albicans [9],>0.11 uM/ml
same,MFC,Aspergillus niger [10],>0.11 uM/ml
same,Ratio,Staphylococcus aureus [11],3
same,Ratio,Bacillus subtilis [12],3
same,Ratio,Escherichia coli [13],3
same,Ratio,Candida albicans [14],3
same,Ratio,Aspergillus niger [15],3
same,logP,[16],0.74
same,IC50,MCF7,2.5 µg/mL
same,IC50,HCT-116,300 µg/mL
